Data reported in patent publication US5369111A, “Modulator agent and use thereof” (University of Vermont, priority 1992, dated 1994).

What was measured:
S180/A10 cells = assay: Modulator potency in MDR cells: reversal of acquired resistance, S180/A10; type: cell-based, murine; conditions: for Modulator potency in MDR cells (minimal concentration restoring parental drug sensitivity), VBL: drug resistance level 10
Method: (§1) Mid-exponential cultures were used for all assays. The RCC-2 and RCC-5 cell lines were seeded into 24-well plates at 2×10^4 cells/well and allowed to attach to the substratum for 16-18 h prior to treatment. The S180 cell lines were seeded into culture tubes at 1×10^5 cells/ml and treated immediately. Cytotoxicity was determined by quantitation of population growth after 72 h incubation by electronic particle counter (Coulter Electronics, Hialeah, Fla.). The human tumor cell lines were used in a clonogenic assay for cytotoxicity. Cells were seeded at 300 cells/dish, incubated overnight and then treated. Colonies were scored 7-11 days later. In all assays of analog modulation of drug sensitivity, the analog was added minutes prior to the addition of cytotoxic drug.
(§2) To evaluate the ability of vindoline and the two diastereoisomeric VBL analogs to modulate the MDR phenotype (acquired resistance) of the A3 and A10 cell stains, we determined the concentration of compound required to restore drug sensitivities to parental levels. This was done by exposing the MDR cell line to a concentration range of modulator in the presence VBL, VCR and ADM at the respective IC70s of the parental cell line. The cytotoxicity curves for A3 and A10 cells, shown in FIG. 5, are distinctive among the three vinca alkaloids examined. In each cell line, there was a minimum concentration of modulator that elicited 70% growth inhibition for each drug - i.e. the reversing concentration.
(§3) *The minimal concentration of modulator required to restore the drug
(§4) sensitivity of S180/MDR cell strains to that of parental S180 cells. Data
(§5) are the averages of 2-3 separate experiments, S.D. ≤20%.

[1] = test system: S180 MDR cell strains A3 and A10; assay: Modulation of acquired drug resistance in the S180 MDR cell strains A3 and A10; type: cell-based, murine; conditions: VBL
Method: as §1, §2
FIG. 5 represents the modulation of multidrug resistance in the MDR cell strains by the vinca alkaloids. Vindoline (A), vincovaline (B), or the analog C-20'-deoxy vincovaline (C) was added, at various concentrations, to A3 (closed symbols) or A10 (opened symbols) cell cultures containing the parental IC70 of each drug: 2.0×10^-7 M. ADM (circles: 1.5×10^-8 M VBL (triangles); and 4.5×10^-8 M; VCR (squares). Population growth was determined 72 hours later.
FIG. 6 represents the relationship between cellular drug resistance level and the minimal modulator concentration required for complete reversal of drug resistance. The drugs examined were ADM (o), VBL (Δ), and VCR (.quadrature.). The amount (concentration) of modulator, necessary to reverse each level of drug resistance contained in the A3 and A10 cell lines, was determined from data such as those of FIG. 5. The values presented were averaged from duplicate samples of two separate experiments, S.D.<15% of the mean. The arrows denote the non-toxic concentration limit for the modulator; in the case of Vincovaline this value is dependent on the MDR cell strain, 2×10^-5 M, A3; 5×10^-5 M. A10.
FIG. 11 represents the modulation of multidrug resistance in the S180 MDR cell strains A3 and A10. The cellular drug resistance level is plotted against the minimal concentration of C-20'-deoxy deethyl vincovaline required for the complete reversal of drug resistance to ADM (o), VBL (Δ), and VCR (.quadrature.). In the case of high level ADM resistance […], the sensitivity of the cells was restored to 80% of the parental value. The arrow denotes the non-toxic concentration limit of the analog.

[2] = Inhibition of population growth (cytotoxicity), rat colon adenocarcinoma RCC-2; type: cell-based; conditions: rat, rcc-2 cells; RCC-2; Table III; read-out: Modulator concentration (nontoxic concentration limit of the analog)
Description: (§6) The analogs were examined in a panel of tumor cell lines of both intrinsic and acquired drug resistance, as described in Table 1. The rat colon adenocarcinoma cell lines RCC-2 and RCC-5 (ref. 13) were maintained in Ham's F12 medium supplemented with 5% heat-inactivated, fetal bovine serum (Sterile Systems. Hyclone, Logan, Utah). The two rat colon cancer cell lines differ in their degree of cellular differentiation; whereas the RCC-2 cell line is undifferentiated, the RCC-5 cell line is highly mucinous. The human epidermoid carcinoma cell line KB-3-1 and its MDR variant KB-Vl, selected by VBL treatment (ref. 14; courtesy of M. Gottesman. National Cancer Institute), was maintained in DMEM medium supplemented with 10%, heat-inactivated, fetal bovine serum. The murine sarcoma cell line […] and its MDR strains A3 and A10 selected by ADM treatment (ref. 15; courtesy of T. Tritton, Dept. Pharmacology, Univ. Vermont). were maintained in DMEM medium supplemented with 10% heat-inactivated, horse serum (Hazelton Biolog. Lenexa, Kans.). Stock cultures were subcultured twice weekly upon reaching the late exponential phase of population growth: population doubling times were 18-24 h. Antibiotics were not used in stock or experimental cultures. The MDR cell strains were grown in drug-free media for 48 h prior to experimental use.
as §1

[3] = test system: parental cell lines (S180, RCC-2, RCC-5); assay: Modulation of intrinsic resistance in the parental cell lines (S180, RCC-2, RCC-5); type: cell-based, mouse, rat
Method: as §1
(§7) *calculated as the IC50 of the drug alone divided by the IC50 o
(§8) the [drug modulator] combination. Data are presented from tretments with
(§9) the nontoxic concentration limit of each analog as noted.

S180 cells, parental = assay: Modulation of intrinsic drug resistance, parental S180; type: cell-based, murine; conditions: S180; IC50 drug alone / IC50 drug + modulator, at nontoxic concentration limit
Method: as §1
The ability of the compounds to modulate drug sensitivity in parental cells was studied over a range of concentrations of each compound, from 10^-6 M to the non-toxic (IC10-20) or solubility limit. […] From such experiments, we determined a sensitivity index derived from the IC50 of the drug without modulator treatment divided by the drug IC50 at each concentration of modulator.
When the sensitivity index for each drug, VBL, VCR and ADM is plotted versus the modulator concentration (FIG. 4), we can compare the relative potencies of the compounds as modulators of drug toxicity to the parental S180 cells.
as §7, §8
FIG. 4 represents the potency of the vinca alkaloid compounds as modulators of drug sensitivity in S180 cells. The enhancement of sensitivity was calculated as the sensitivity index=IC50 of the drug alone divided by the IC50 of the drug+modulator. The IC50s for ADM (o) VBL (Δ), or VCR (.quadrature.) were determined over a concentration range of each modulator from data such as those depicted in FIG. 3. The values presented were averaged from duplicate samples of two separate experiments, S.D. <15% of the mean.

[4] = Inhibition of population growth (cytotoxicity), S180 sarcoma, parental; type: cell-based, mouse; conditions: mouse, s180 cells; S180; Table III; read-out: Modulator concentration (nontoxic concentration limit of the analog)
Description: as §6, §1

S180/A3 cells = assay: Modulator potency in MDR cells: reversal of acquired resistance, S180/A3; type: cell-based, murine; conditions: for Modulator potency in MDR cells (minimal concentration restoring parental drug sensitivity), VBL: drug resistance level 3; for Modulator potency in MDR cells (minimal concentration restoring parental drug sensitivity), VCR: drug resistance level 7
Method: as §1, §2, §3, §4, §5

RCC-2 cells = assay: Modulation of intrinsic drug resistance, RCC-2; type: cell-based, rat; conditions: IC50 drug alone / IC50 drug + modulator, at nontoxic concentration limit
Method: as §1, §7, §8, §9

RCC-5 cells = assay: Modulation of intrinsic drug resistance, RCC-5; type: cell-based, rat; conditions: RCC-5; IC50 drug alone / IC50 drug + modulator, at nontoxic concentration limit
Method: as §1, §7, §8, §9
FIG. 9 represents the modulation of VCR sensitivity in the RCC-12 (A) and RCC-5 (B) cell lines by the analog C-20'-deoxy deethyl vincovaline. Population growth was determined after 72 hours incubation in the absence (o), or presence of 10 μM (o), 20 μM (Δ), or 50 μM of analog. Data presented are from a typical experiment.

[5] = test system: S180/MDR cell system and rat colon cancer cell lines; assay: Cytotoxicity in the S180/MDR cell system and the rat colon cancer cell lines; type: cell-based, mouse; conditions: S-180, 72 h
Description: as §6, §1

[6] = Inhibition of population growth (cytotoxicity), rat colon adenocarcinoma RCC-5; type: cell-based; conditions: rat, rcc-5 cells; RCC-5; Table III; read-out: Modulator concentration (nontoxic concentration limit of the analog)
Description: as §6, §1

| Compound | Modulator potency in MDR cells (minimal concentration restoring parental drug sensitivity), VBL (S180/A10 cells) | MNTC at 72 h [2] | modulation of intrinsic cellular resistance to ADM and/or VCR (in words) ([3]; VCR) | effect on the sensitivity of parental cells to VBL (in words) [3] | Maximum sensitization of parental cells by modulator, drug ADM (S180 cells, parental) | Maximum sensitization of parental cells by modulator, drug VBL (S180 cells, parental) | Maximum sensitization of parental cells by modulator, drug VCR (S180 cells, parental) | MNTC at 72 h [4] | Modulator potency in MDR cells (minimal concentration restoring parental drug sensitivity), VBL (S180/A3 cells) | Modulator potency in MDR cells (minimal concentration restoring parental drug sensitivity), VCR (S180/A3 cells) | Maximum sensitization of parental cells by modulator, drug ADM (RCC-2 cells) | Maximum sensitization of parental cells by modulator, drug VCR (RCC-2 cells) | Maximum sensitization of parental cells by modulator, drug ADM (RCC-5 cells) | Maximum sensitization of parental cells by modulator, drug VBL (RCC-5 cells) | Maximum sensitization of parental cells by modulator, drug VCR (RCC-5 cells) | IC50 [5] | MNTC at 72 h [6] | further results |
| --- | --- | --- | --- | --- | --- | --- | --- | --- | --- | --- | --- | --- | --- | --- | --- | --- | --- | --- |
| CC[C@]12C=CCN3CC[C@@]4(c5cc([C@@]6(C(=O)OC)C[C@H]7CCCN(CCc8c6[nH]c6ccccc86)C7)c(OC)cc5N(C)[C@H]4[C@@](O)(C(=O)OC)[C@@H]1OC(C)=O)[C@@H]32 [analog n° 330, C-14'-epi-C-20'-deethyl C-20'-deoxy-vinblastine] | 18. μM | 10 µM | modulated intrinsic cellular resistance to ADM and/or VCR | less effect on the sensitivity of parental cells to VBL | 4.2 | 1.0 | 2.0 | 20 µM | 5.2 µM | 11. μM | 1.0 | 2.0 | 2.2 | 2.0 | 6.0 | ≥ 5 µM | 10 µM | Modulator potency in MDR cells (minimal concentration restoring parental drug sensitivity), ADM (S180/A10 cells; ADM, drug resistance level 90): no effect; restoration of parental drug sensitivity in MDR cells (in words) ([1]; VCR, ADM): full restoration of parental drug sensitivity was achieved for VBL and low level VCR resistance, only |
| CCC1CC2CN(CCc3c([nH]c4ccccc34)C(C(=O)OC)(c3cc4c(cc3OC)N(C)C3C(O)(C(=O)OC)C(OC(C)=O)C5(CC)C=CCN6CCC43C65)C2)C1 (stereo not drawn) [analog n° 353, C-14'-epi-C-20'-deoxy-VBL] | 10.0 µM | 10 µM | modulated intrinsic cellular resistance to ADM and/or VCR | less effect on the sensitivity of parental cells to VBL | 4.0 | 1.4 | 7.0 | 40 µM | 4.0 µM | 4.0 µM | 2.1 | 7.3 | 6.4 | 1.6 | 3.5 | ≥ 5 µM | 10 µM | reversal of high level ADM resistance (S180/A10 cells; ADM, 90-fold resistance, A10): 80%; Modulator potency in MDR cells, ADM (value marked #) (S180/A10 cells; ADM, drug resistance level 90, #: significant (>50%) reversal at the maximum nontoxic concentration): 40. μM; Modulator potency in MDR cells (minimal concentration restoring parental drug sensitivity), VCR (S180/A10 cells; VCR, drug resistance level 17): 13.0 µM; range of resistance levels over which parental sensitivity was restored ([1]; VCR and ADM): 3-90 fold; enhancement of VCR cytotoxicity in the parental cell lines ([3]; VCR): 7-18 fold; Modulator potency in MDR cells (minimal concentration restoring parental drug sensitivity), ADM (S180/A3 cells; ADM, drug resistance level 15): 35. μM; Maximum sensitization of parental cells by modulator, drug VBL (RCC-2 cells): 1.8 |
